From patent publication US20240199546A1, “INHIBITORS OF SOLUTE CARRIER FAMILY 6A MEMBER 19 (SLC6A19) AND METHODS OF USE THEREOF” (Maze Therapeutics, Inc., priority 2022, published 2024)

Biological target: T1, human SLC6A19 and TMEM27 (Homo sapiens, UniProt Q695T7)
T1 construct: expressed in transfected cells
T1 sequence (Q695T7 1-634): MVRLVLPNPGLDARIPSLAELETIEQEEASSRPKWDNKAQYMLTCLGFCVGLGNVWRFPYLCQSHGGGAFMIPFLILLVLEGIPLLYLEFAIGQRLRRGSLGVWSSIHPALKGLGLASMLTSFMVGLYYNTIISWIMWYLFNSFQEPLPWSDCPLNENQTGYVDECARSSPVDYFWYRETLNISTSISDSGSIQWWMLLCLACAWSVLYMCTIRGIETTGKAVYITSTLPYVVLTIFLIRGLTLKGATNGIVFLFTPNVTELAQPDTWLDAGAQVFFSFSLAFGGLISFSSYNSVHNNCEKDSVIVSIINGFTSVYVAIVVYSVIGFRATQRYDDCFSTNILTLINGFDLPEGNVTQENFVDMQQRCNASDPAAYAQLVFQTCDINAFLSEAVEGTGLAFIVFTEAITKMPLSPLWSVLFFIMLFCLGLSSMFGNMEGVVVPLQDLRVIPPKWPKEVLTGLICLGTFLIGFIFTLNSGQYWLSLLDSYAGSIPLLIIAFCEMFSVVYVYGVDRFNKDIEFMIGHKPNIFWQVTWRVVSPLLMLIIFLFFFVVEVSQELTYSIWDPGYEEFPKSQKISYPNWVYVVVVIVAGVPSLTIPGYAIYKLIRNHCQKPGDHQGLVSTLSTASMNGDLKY
T1 sequence (Q9HBJ8 15-222 partner): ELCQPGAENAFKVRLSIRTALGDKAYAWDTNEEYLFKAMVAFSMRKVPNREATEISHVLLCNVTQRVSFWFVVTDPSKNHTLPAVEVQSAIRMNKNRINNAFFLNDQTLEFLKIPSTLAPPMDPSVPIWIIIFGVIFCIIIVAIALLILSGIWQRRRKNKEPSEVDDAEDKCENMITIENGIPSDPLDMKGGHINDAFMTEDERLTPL
Assay: Radiolabelled (3H) leucine uptake in CHO cells with doxycycline-inducible expression of human SLC6A19 and TMEM27 (Example B-1)
Assay type: cell-based
Conditions: CHO cells with doxycycline-inducible expression of human SLC6A19 and TMEM27, read-out: SLC6A19_Radioligand Uptake Assay IC50
Experimental: The flasks were then incubated (humidified, 37° C. with 5% CO2) for 2 minutes. After incubation, 10 mL of pre-warmed cell culture media was added to each flask. The cell suspension was collected and centrifuged for 5 minutes at 200×g. The supernatant was aspirated and the pellet was resuspended in 5 mL pre-warmed cell culture media. The resuspended cells were counted using the Countess Cell Counting Chamber (Invitrogen) and the cell concentration of the suspension was readjusted to 1 million live cells/mL using pre-warmed cell culture media. […] Assay plates were then incubated (humidified, 37° C. with 5% CO2) for 18 hours. After incubation, the media was aspirated and the wells were washed 4 times with pre-warmed HBSS (Sigma-Aldrich, H8264-1L) using an Apricot S-Pipette S2 (Apricot Designs), such that 5 uL/well HBSS was remaining at the end of each wash. […] At this step, the final in-well DMSO concentration in the assay plate is 0.5%. All compounds were plated in a duplicate 8-point dilution series that consisted of 3-fold dilutions. The plates were incubated with compound (humidified, 37° C. with 5% CO2) for 1 hour. […] The plates were then incubated (humidified, 37° C. with 5% CO2) on a plate shaker at 200 rpm for 2 hours. After incubation, the plates were removed from the shaker and kept at room temperature for 15 minutes. Liquid scintillation analysis was performed using the MicroBeta2 Microplate Counter (Perkin Elmer). Activity (%) was derived by normalizing the average of positive control compound treated wells to 0% and the average of DMSO (negative control) wells to 100%. Collaborative Drug Discovery software was used for graphing data.

Row | Structure (SMILES) | IC50 [nM]
1 | Cc1cc(COc2cc3[nH]c(CNC(=O)[C@H]4CC[C@@H]4O)cc3cc2Cl)on1 (racemic) [Compound 248, (1R,2R)-N-((5-chloro-6-((3-methylisoxazol-5-yl)methoxy)-1H-indol-2-yl)methyl)-2-hydroxycyclobutane-1-carboxamide and (1S,2S)-N-((5-chloro-6-((3-methylisoxazol-5-yl)methoxy)-1H-indol-2-yl)methyl)-2-hydroxycyclobutane-1-carboxamide] | 627
2 | Cc1cc(COc2cc3[nH]c(CNC(=O)[C@H]4C[C@@H]5CC[C@H]4O5)cc3cc2Cl)on1 (racemic) [Compound 297, (1R,2S,4S)-N-((5-chloro-6-((3-methylisoxazol-5-yl)methoxy)-1H-indol-2-yl)methyl)-7-oxabicyclo[2.2.1]heptane-2-carboxamide and (1S,2R,4R)-N-((5-chloro-6-((3-methylisoxazol-5-yl)methoxy)-1H-indol-2-yl)methyl)-7-oxabicyclo[2.2.1]heptane-2-carboxamide] | 1020
3 | CC(NC(=O)C1(C)CC1)c1cc2cc(Cl)c(OCc3ccon3)cc2[nH]1 (racemic) [Compound 395, (S)-N-(1-(5-chloro-6-(isoxazol-3-ylmethoxy)-1H-indol-2-yl)ethyl)-1-methylcyclopropane-1-carboxamide and (R)-N-(1-(5-chloro-6-(isoxazol-3-ylmethoxy)-1H-indol-2-yl)ethyl)-1-methylcyclopropane-1-carboxamide] | 2140
4 | CC1(C(=O)NCc2cc3cc(Cl)c(OCC4COCCO4)cc3[nH]2)CC1 (racemic) [Compound 396, (S)-N-((6-((1,4-dioxan-2-yl)methoxy)-5-chloro-1H-indol-2-yl)methyl)-1-methylcyclopropane-1-carboxamide and (R)-N-((6-((1,4-dioxan-2-yl)methoxy)-5-chloro-1H-indol-2-yl)methyl)-1-methylcyclopropane-1-carboxamide] | 644
5 | CC1(C(=O)NCc2cc3cc(Cl)c(OCCC4CCCO4)cc3[nH]2)CC1 (racemic) [Compound 397, (S)-N-((5-chloro-6-(2-(tetrahydrofuran-2-yl)ethoxy)-1H-indol-2-yl)methyl)-1-methylcyclopropane-1-carboxamide and (R)-N-((5-chloro-6-(2-(tetrahydrofuran-2-yl)ethoxy)-1H-indol-2-yl)methyl)-1-methylcyclopropane-1-carboxamide] | 492
6 | Cc1cc(COc2cc3[nH]c(CNC(=O)C(C)F)cc3cc2Cl)on1 (racemic) [Compound 442, (S)-N-((5-chloro-6-((3-methylisoxazol-5-yl)methoxy)-1H-indol-2-yl)methyl)-2-fluoropropanamide and (R)-N-((5-chloro-6-((3-methylisoxazol-5-yl)methoxy)-1H-indol-2-yl)methyl)-2-fluoropropanamide] | 75.2
7 | Cc1cc(COc2cc3[nH]c(CNC(=O)C(C)C#N)cc3cc2Cl)on1 (racemic) [Compound 486, (S)-N-((5-chloro-6-((3-methylisoxazol-5-yl)methoxy)-1H-indol-2-yl)methyl)-2-cyanopropanamide and (R)-N-((5-chloro-6-((3-methylisoxazol-5-yl)methoxy)-1H-indol-2-yl)methyl)-2-cyanopropanamide] | 387
8 | Cc1cc(COc2cc3[nH]c(CNC(=O)[C@@H]4CCC[C@H]4O)cc3cc2Cl)on1 (racemic) [Compound 534, (1R,2R)-N-((5-chloro-6-((3-methylisoxazol-5-yl)methoxy)-1H-indol-2-yl)methyl)-2-hydroxycyclopentane-1-carboxamide and (1S,2S)-N-((5-chloro-6-((3-methylisoxazol-5-yl)methoxy)-1H-indol-2-yl)methyl)-2-hydroxycyclopentane-1-carboxamide] | 3040
9 | Cc1cc(COc2cc3[nH]c(CNC(=O)C(C)C4COC4)cc3cc2Cl)on1 (racemic) [Compound 545, (S)-N-((5-chloro-6-((3-methylisoxazol-5-yl)methoxy)-1H-indol-2-yl)methyl)-2-(oxetan-3-yl)propenamide and (R)-N-((5-chloro-6-((3-methylisoxazol-5-yl)methoxy)-1H-indol-2-yl)methyl)-2-(oxetan-3-yl)propanamide] | 3540

Continued, values first:

Row | IC50 [nM] | Structure (SMILES)
10 | 1050 | CC(NC(=O)C1(C)CC1)c1cc2cc(Cl)c(OCc3cscn3)cc2[nH]1 (racemic) [Compound 347, (S)-N-(1-(5-chloro-6-(thiazol-4-ylmethoxy)-1H-indol-2-yl)ethyl)-1-methylcyclopropane-1-carboxamide and (R)-N-(1-(5-chloro-6-(thiazol-4-ylmethoxy)-1H-indol-2-yl)ethyl)-1-methylcyclopropane-1-carboxamide]
11 | 991 | O=C(NCc1cc2cc(Cl)c(OCc3cscn3)cc2[nH]1)N1CCC1CO (racemic) [Compound 365, (S)-N-((5-chloro-6-(thiazol-4-ylmethoxy)-1H-indol-2-yl)methyl)-2-(hydroxymethyl)azetidine-1-carboxamide and (R)-N-((5-chloro-6-(thiazol-4-ylmethoxy)-1H-indol-2-yl)methyl)-2-(hydroxymethyl)azetidine-1-carboxamide]
12 | 1530 | O=C(NCc1cc2cc(Cl)c(OCc3cscn3)cc2[nH]1)N1CCC(O)C1 (racemic) [Compound 366, (R)-N-((5-chloro-6-(thiazol-4-ylmethoxy)-1H-indol-2-yl)methyl)-3-hydroxypyrrolidine-1-carboxamide and (S)-N-((5-chloro-6-(thiazol-4-ylmethoxy)-1H-indol-2-yl)methyl)-3-hydroxypyrrolidine-1-carboxamide]
13 | 472 | Cc1cc(COc2cc3[nH]c(CNC(=O)N4CCC(F)C4)cc3cc2Cl)on1 (racemic) [Compound 373, (R)-N-((5-chloro-6-((3-methylisoxazol-5-yl)methoxy)-1H-indol-2-yl)methyl)-3-fluoropyrrolidine-1-carboxamide and (S)-N-((5-chloro-6-((3-methylisoxazol-5-yl)methoxy)-1H-indol-2-yl)methyl)-3-fluoropyrrolidine-1-carboxamide]
14 | 948 | Cc1cc(COc2cc3[nH]c(CNC(=O)N4CCCC4C(F)F)cc3cc2Cl)on1 (racemic) [Compound 375, (S)-N-((5-chloro-6-((3-methylisoxazol-5-yl)methoxy)-1H-indol-2-yl)methyl)-2-(difluoromethyl)pyrrolidine-1-carboxamide and (R)-N-((5-chloro-6-((3-methylisoxazol-5-yl)methoxy)-1H-indol-2-yl)methyl)-2-(difluoromethyl)pyrrolidine-1-carboxamide]
15 | 444 | CC(C#N)C(=O)NCc1cc2cc(Cl)c(OCc3cscn3)cc2[nH]1 (racemic) [Compound 445, (S)-N-((5-chloro-6-(thiazol-4-ylmethoxy)-1H-indol-2-yl)methyl)-2-cyanopropanamide and (R)-N-((5-chloro-6-(thiazol-4-ylmethoxy)-1H-indol-2-yl)methyl)-2-cyanopropanamide]
16 | 86.1 | CC(F)C(=O)NCc1cc2cc(Cl)c(OCc3cscn3)cc2[nH]1 (racemic) [Compound 511, (R)-N-((5-chloro-6-(thiazol-4-ylmethoxy)-1H-indol-2-yl)methyl)-2-fluoropropanamide and (S)-N-((5-chloro-6-(thiazol-4-ylmethoxy)-1H-indol-2-yl)methyl)-2-fluoropropanamide]
17 | 4480 | CN1CC(C(=O)NCc2cc3cc(Cl)c(OCc4cscn4)cc3[nH]2)C1=O (racemic) [Compound 546, (R)-N-((5-chloro-6-(thiazol-4-ylmethoxy)-1H-indol-2-yl)methyl)-1-methyl-2-oxoazetidine-3-carboxamide and (S)-N-((5-chloro-6-(thiazol-4-ylmethoxy)-1H-indol-2-yl)methyl)-1-methyl-2-oxoazetidine-3-carboxamide]
